Each compound was assayed on Bovine cardiac myofibrils (assay: In vitro model of dose-dependent myofibril ATPase modulation (AC1.4, pyruvate kinase/lactate dehydrogenase-coupled ATPase assay at pCa25)). Details: concentration at which ATPase activity was 1.4-fold higher than the bottom of the dose curve, mean of a minimum of two independent tests.
Type: biochemical
Method in brief: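 Absorbance at 340 nm tracked ATP hydrolysis through pyruvate kinase/lactate dehydrogenase coupling (0.5 mM NADH, 1.5 mM PEP). Myofibrils from detergent-homogenized bovine heart, 1 mM ATP, pH 6.80, EGTA/CaCl2 buffering. Dose-response curves fitted with a four-parameter Hill equation.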

SMILES	AC1.4
CNc1ccc(S(C)(=O)=O)cc1C(=O)N1[C@@H](C(=O)N[C@@H](c2ccc(C(F)(F)F)cc2F)C2CC2)C[C@H]2C[C@H]21 [Example 148, (1R,3R,5R)-N-((R)-cyclopropyl(2-fluoro-4-(trifluoromethyl)phenyl)methyl)-2-(2-(methylamino)-5-(methylsulfonyl)benzoyl)-2-azabicyclo[3.1.0]hexane-3-carboxamide]	0.2569 µM
O=C(NCc1ccc(C(F)(F)F)cc1F)[C@H]1CCCN1C(=O)[C@H]1CCCN(S(=O)(=O)N2CC(n3ccnn3)C2)C1 [Example 151, N-(2-fluoro-4-(trifluoromethyl)benzyl)-1-(((3S)-1-((3-(1H-l,2,3-triazol-1-yl)-1-azetidinyl)sulfonyl)-3-piperidinyl)carbonyl)-D-prolinamide]	0.2616 µM
N#CC1CN(S(=O)(=O)N2CCC[C@H](C(=O)N3CCC[C@@H]3C(=O)NCc3cc(F)c(F)c(F)c3)C2)C1 [Example 153, 1-(((3S)-1-((3-cyano-1-azetidinyl)sulfonyl)-3-piperidinyl)carbonyl)-N-(3,4,5-trifluorobenzyl)-D-prolinamide]	0.2697 µM
CS(=O)(=O)c1ccc(NCCO)c(C(=O)N2CCC[C@@H]2C(=O)N[C@@H](c2ccc(C(F)(F)F)cc2F)C2CC2)c1 [Example 154, N-((R)-cyclopropyl(2-fluoro-4-(trifluoromethyl)phenyl)methyl)-1-(2-((2-hydroxyethyl)amino)-5-(methylsulfonyl)benzoyl)-D-prolinamide]	0.2715 µM
CC1(C#N)CN(S(=O)(=O)N2CCC[C@H](C(=O)N3CCC[C@@H]3C(=O)NCc3ccc(C(F)(F)F)cc3)C2)C1 [Example 156, 1-(((3S)-1-((3-cyano-3-methyl-1-azetidinyl)sulfonyl)-3-piperidinyl)carbonyl)-N-(4-(trifluoromethyl)benzyl)-D-prolinamide]	0.2727 µM

Now from value to compound:

AC1.4	SMILES
0.2589 µM	N#CC1CN(S(=O)(=O)N2CCO[C@H](C(=O)N3CCC[C@@H]3C(=O)NCc3ccc(C(F)(F)F)cc3)C2)C1 [Example 149, 1-(((2S)-4-((3-cyano-1-azetidinyl)sulfonyl)-2-morpholinyl)carbonyl)-N-(4-(trifluoromethyl)benzyl)-D-prolinamide]
0.2589 µM	C[C@@H](NC(=O)[C@H]1CCCN1C(=O)[C@H]1CCCN(S(=O)(=O)N2CC(S(C)(=O)=O)C2)C1)c1ccc(Cl)cc1 [Example 150, N-((1R)-1-(4-chlorophenyl)ethyl)-1-(((3S)-1-((3-(methylsulfonyl)-1-azetidinyl)sulfonyl)-3-piperidinyl)carbonyl)-D-prolinamide]
0.2624 µM	Cc1c(Cl)cccc1CNC(=O)[C@H]1CCCN1C(=O)[C@H]1CCCN(S(=O)(=O)N2CC(C#N)C2)C1 [Example 152, N-(3-chloro-2-methylbenzyl)-1-(((3S)-1-((3-cyano-1-azetidinyl)sulfonyl)-3-piperidinyl)carbonyl)-D-prolinamide]
0.272 µM	Cc1ccc(C(C)NC(=O)[C@H]2CCCN2C(=O)[C@H]2CCCN(S(=O)(=O)N3CC(C#N)C3)C2)cc1F (stereo partly drawn) [Example 155, 1-(((3S)-1-((3-cyano-1-azetidinyl)sulfonyl)-3-piperidinyl)carbonyl)-N-(-1-(3-fluoro-4-methylphenyl)ethyl)-D-prolinamide]
0.2727 µM	N#CC1CN(S(=O)(=O)c2cccc(C(=O)N3CCC[C@@H]3C(=O)NCc3ccc(CF)cc3)c2)C1 [Example 157, 1-((3-((3-cyano-1-azetidinyl)sulfonyl)phenyl)carbonyl)-N-(4-(fluoromethyl)benzyl)-D-prolinamide]
0.273 µM	N#CC1CN(S(=O)(=O)c2cccc(C(=O)N3CCC[C@@H]3C(=O)N[C@H](CO)c3cccc(C(F)(F)F)c3)c2)C1 [Example 158, 1-(3-((3-cyano-1-azetidinyl)sulfonyl)benzoyl)-N-((1S)-2-hydroxy-1-(3-(trifluoromethyl)phenyl)ethyl)-D-prolinamide]
